Data reported in PubChem BioAssay (NCI).
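GI50 is the concentration that inhibits growth by half. TGI marks complete inhibition of growth.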

Legend:
Assay in all cases: growth of human tumour cells (NCI), 384-well format; in the data active = GI50 below about 0.43 µM; inactive = the rest
NCI/ADR-RES ovarian = test system: NCI/ADR-RES ovarian
HL-60(TB) leukemia = test system: HL-60(TB) leukemia
HCT-116 colon = test system: HCT-116 colon
SW-620 colon = test system: SW-620 colon
CAKI-1 renal = test system: CAKI-1 renal
SK-MEL-2 melanoma = test system: SK-MEL-2 melanoma
HOP-62 NSCLC = test system: HOP-62 NSCLC
NCI-H23 lung = test system: NCI-H23 lung
SNB-19 CNS = test system: SNB-19 CNS
PC-3 prostate = test system: PC-3 prostate
OVCAR-4 ovarian = test system: OVCAR-4 ovarian
HCC-2998 colon = test system: HCC-2998 colon
A549 NSCLC = test system: A549 NSCLC
DU-145 prostate = test system: DU-145 prostate
786-0 renal = test system: 786-0 renal
HT29 colon = test system: HT29 colon
SF-268 CNS = test system: SF-268 CNS
COLO 205 colon = test system: COLO 205 colon
NCI-H460 NSCLC = test system: NCI-H460 NSCLC
MDA-MB-231 breast = test system: MDA-MB-231 breast
UACC-62 melanoma = test system: UACC-62 melanoma
UO-31 renal = test system: UO-31 renal
M14 melanoma = test system: M14 melanoma
MALME-3M melanoma = test system: MALME-3M melanoma
MDA-MB-435 melanoma = test system: MDA-MB-435 melanoma
MOLT-4 leukemia = test system: MOLT-4 leukemia
SK-OV-3 ovarian = test system: SK-OV-3 ovarian
T-47D breast = test system: T-47D breast
A498 renal = test system: A498 renal
NCI-H322M lung = test system: NCI-H322M lung
SNB-75 CNS = test system: SNB-75 CNS
EKVX NSCLC = test system: EKVX NSCLC
BT-549 breast = test system: BT-549 breast
OVCAR-3 ovarian = test system: OVCAR-3 ovarian
HOP-92 NSCLC = test system: HOP-92 NSCLC
HCT-15 colon = test system: HCT-15 colon
LOX IMVI melanoma = test system: LOX IMVI melanoma
NCI-H522 lung = test system: NCI-H522 lung
MCF7 breast = test system: MCF7 breast
SK-MEL-5 melanoma = test system: SK-MEL-5 melanoma
RPMI-8226 leukemia = test system: RPMI-8226 leukemia
K-562 leukemia = test system: K-562 leukemia
OVCAR-5 ovarian = test system: OVCAR-5 ovarian
OVCAR-8 ovarian = test system: OVCAR-8 ovarian
NCI-H226 lung = test system: NCI-H226 lung
TK-10 renal = test system: TK-10 renal
CCRF-CEM leukemia = test system: CCRF-CEM leukemia

COc1cc(C)[nH]c(=O)c1CNC(=O)c1c(C)n([C@H](C)C2CCN(CC(F)(F)F)CC2)c2ccccc12
94.1 µM: TGI (LOX IMVI melanoma)
> 61.6 µM: TGI (HL-60(TB) leukemia)
> 65.5 µM: TGI (SK-MEL-5 melanoma)
10.3 µM: TGI (RPMI-8226 leukemia)
inactive: GI50 (NCI/ADR-RES ovarian) > 100 µM | GI50 (HL-60(TB) leukemia) 33.4 µM | GI50 (HCT-116 colon) 66.8 µM | GI50 (SW-620 colon) 52 µM | GI50 (CAKI-1 renal) 63.5 µM | GI50 (SK-MEL-2 melanoma) 38.6 µM | GI50 (HOP-62 NSCLC) 46.7 µM | GI50 (NCI-H23 lung) > 100 µM | GI50 (SNB-19 CNS) > 100 µM | GI50 (PC-3 prostate) 55.5 µM | GI50 (OVCAR-4 ovarian) 45.5 µM | GI50 (HCC-2998 colon) 65.3 µM | GI50 (A549 NSCLC) 46.8 µM | GI50 (DU-145 prostate) 51.1 µM | GI50 ([…]-0 renal) 50.6 µM | GI50 (HT29 colon) 39.7 µM | GI50 (SF-268 CNS) 39.6 µM | GI50 (COLO 205 colon) 97.3 µM | GI50 (NCI-H460 NSCLC) 54.7 µM | GI50 (MDA-MB-231 breast) 67.5 µM | GI50 (UACC-62 melanoma) 37.9 µM | GI50 (UO-31 renal) 90.4 µM | GI50 (M14 melanoma) > 72.8 µM | GI50 (MALME-3M melanoma) > 66.1 µM | GI50 (MDA-MB-435 melanoma) 58.6 µM | GI50 (MOLT-4 leukemia) 16.5 µM | GI50 (SK-OV-3 ovarian) 56.6 µM | GI50 (T-47D breast) 29.7 µM | GI50 (A498 renal) 43.1 µM | GI50 (NCI-H322M lung) > 83.6 µM | GI50 (SNB-75 CNS) 42 µM | GI50 (EKVX NSCLC) 67.7 µM | GI50 (BT-549 breast) 27.4 µM | GI50 (OVCAR-3 ovarian) 34.2 µM | GI50 (HOP-92 NSCLC) 45.7 µM | GI50 (HCT-15 colon) 67 µM | GI50 (LOX IMVI melanoma) 31.7 µM | GI50 (NCI-H522 lung) 65.2 µM | GI50 (MCF7 breast) 27.3 µM | GI50 (SK-MEL-5 melanoma) 33.5 µM | GI50 (RPMI-8226 leukemia) 2.4 µM | GI50 (K-562 leukemia) 36.3 µM | GI50 (OVCAR-5 ovarian) > 100 µM | GI50 (OVCAR-8 ovarian) > 96 µM | GI50 (NCI-H226 lung) > 51.9 µM | GI50 (TK-10 renal) > 100 µM | GI50 (CCRF-CEM leukemia) 21.6 µM
> 100 µM: TGI (NCI/ADR-RES ovarian) | TGI (HCT-116 colon) | TGI (CAKI-1 renal) | TGI (SK-MEL-2 melanoma) | TGI (HOP-62 NSCLC) | TGI (NCI-H23 lung) | TGI (SNB-19 CNS) | TGI (PC-3 prostate) | TGI (OVCAR-4 ovarian) | TGI (HCC-2998 colon) | TGI (A549 NSCLC) | TGI (DU-145 prostate) | TGI (786-0 renal) | TGI (HT29 colon) | TGI (COLO 205 colon) | TGI (NCI-H460 NSCLC) | TGI (MDA-MB-231 breast) | TGI (UACC-62 melanoma) | TGI (UO-31 renal) | TGI (M14 melanoma) | TGI (MALME-3M melanoma) | TGI (MDA-MB-435 melanoma) | TGI (SK-OV-3 ovarian) | TGI (A498 renal) | TGI (NCI-H322M lung) | TGI (SNB-75 CNS) | TGI (EKVX NSCLC) | TGI (HOP-92 NSCLC) | TGI (HCT-15 colon) | TGI (NCI-H522 lung) | TGI (MCF7 breast) | TGI (K-562 leukemia) | TGI (OVCAR-5 ovarian) | TGI (OVCAR-8 ovarian) | TGI (TK-10 renal)
> 96.5 µM: TGI (OVCAR-3 ovarian)
> 68.2 µM: TGI (SF-268 CNS)
96.9 µM: TGI (NCI-H226 lung)
43.9 µM: TGI (CCRF-CEM leukemia)
> 91.9 µM: TGI (SW-620 colon)
31.3 µM: TGI (MOLT-4 leukemia)
> 72.6 µM: TGI (BT-549 breast)
> 94.1 µM: TGI (T-47D breast)
